Patent EP4772510A2, “BENZAZEPINONE COMPOUND AND USE THEREOF” (HANGZHOU BIO-SINCERITY PHARMA-TECHCO., LTD., priority 2023, dated 2025)

Legend:
[1] = in vivo; conditions: male, SD, rat, plasma
Method: (§1) Example 59: Pharmacokinetic Experiment of Compounds in SD Rats
(§2) SD rats, male, 6-8 weeks old, purchased from Zhejiang Vital River Laboratory Animal Technology Co., Ltd., production license No.: SCXK (Zhejiang) 2019-0001. The animals were maintained in an SPF-grade animal room of Hangzhou Bio-Sincerity Pharma-Tech Co., Ltd., with the experimental animal use license No. of SYXK (Zhejiang) 2021-0014. The animals were used after being acclimatized for at least one week. All experiments were performed in strict compliance with the regulations on experimental animals.
(§3) Four hours after administration, food was provided.
(§4) After administration to SD rats, about 300 µL of blood was collected from the orbit of each animal and anticoagulated with EDTA-Na2. […] The collected blood was placed in an ice bath and centrifuged within 1 h to separate plasma (centrifugation conditions: 2000× g, 10 min, 4 °C). 50 µL of plasma sample was taken, subjected to protein precipitation, and then assayed by UHPLC-MS. The assay data were analyzed and processed using WinNonLin8.1 pharmacokinetic software to obtain pharmacokinetic parameters.

[2] = Pharmacokinetic experiment in SD rats; conditions: p.o, 5 mg/kg vs i.v, 0.5 mg/kg
Method: as §1, §2, §3, §4

[3] = system: U937 cells; experiment: Inhibition of TNF-α-induced necroptosis of U937 cells (CCK-8 assay); assay type: cell-based, human; conditions: Homo sapiens, U-937, TNF-α 20 ng/mL + BV6 2 µM + Z-VAD-FMK 20 µM, 18 h
How it was run: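 U937 cells (3.6 × 10^4/well) rested 6 h, then exposed to TNF-α 20 ng/mL, BV6 2 µM and Z-VAD-FMK 20 µM plus compound (8-point 3-fold series, 1000–0.46 nM, duplicate) for 18 h. Viability by CCK-8, absorbance at 450 nm after 2-4 h at 37 °C; EC50 calculated.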

[4] = system: HT-29 cells; experiment: Inhibition of TNF-α-induced necroptosis of HT-29 cells (SRB method); assay type: cell-based, human; conditions: Homo sapiens, HT-29, TNF-α 20 ng/mL + BV6 2 µM + Z-VAD-FMK 20 µM, 18 h
How it was run: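 HT-29 cells (3 × 10^4/well, 24 h) were treated 18 h with compound (8 three-fold dilutions, 1000.00-0.46 nM, duplicate) plus TNF-α 20 ng/mL, BV6 2 µM and Z-VAD-FMK 20 µM final, at 37 °C. Viability was read by SRB absorbance; EC50 values were fitted.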

SMILES	EC50 [3] [nM]	EC50 [4] [nM]	also measured
O=C(NC1CCc2cccc3c2N(CC3)C1=O)c1ncn(Cc2c(F)cccc2F)n1 (stereo not drawn) [Example 13 in CN20191051 8248X, 1-(2,6-difluorobenzyl)-N-(4-oxo-1,2,3,4,6,7-hexahydroazepino[3,2,1-hi]indol-3-yl)-1H-1,2,4-triazole-3-carboxamide, reference compound]	–	–	AUC(0-t) ([1]; intravenous, 0.5 mg/kg): 271 ± 38 ng·h/mL; Cmax ([1]; intravenous, 0.5 mg/kg): 983 ± 106 ng/mL; clearance ([1]; intravenous, 0.5 mg/kg): 31 ± 4.47 mL/min/kg; half-life ([1]; intravenous, 0.5 mg/kg): 26.4 ± 15.6 min; AUC(0-t) ([1]; oral, 5 mg/kg): 340 ± 174 ng·h/mL; CL/F ([1]; oral, 5 mg/kg): 8.37 ± 4.01 mL/min/kg; Cmax ([1]; oral, 5 mg/kg): 467 ± 215 ng/mL; half-life ([1]; oral, 5 mg/kg): 20.4 ± 8.4 min; Fabs (%) [2]: 12.55 ± 6.41%
O=C(NC1CCc2cc(C#Cc3cnn(C(F)F)c3)cc3c2N(CC3)C1=O)c1ncn(Cc2ccc(F)c(F)c2)n1 (stereo not drawn) [III-23, 1-(3,4-difluorobenzyl)-N-(9-((1-(difluoromethyl)-1H-pyrazol-4-yl)ethynyl)-4-oxo-1,2,3,4,6,7-hexahydroazepino[3,2,1-hi]indol-3-yl)-1H-1,2,4-triazole-3-carboxamide]	10 to 100	10 to 100	–
O=C(NC1CCc2cc(C#Cc3cnn(C(F)F)c3)cc3c2N(CC3)C1=O)c1ncn(Cc2ccc(F)cc2)n1 (stereo not drawn) [III-24, N-(9-((1-(difluoromethyl)-1H-pyrazol-4-yl)ethynyl)-4-oxo-1,2,3,4,6,7-hexahydroazepino[3,2,1-hi]indol-3-yl)-1-(4-fluorobenzyl)-1H-1,2,4-triazole-3-carboxamide]	5 to 10	10 to 100	–
O=C(NC1CCc2cc(C#Cc3cnn4c3COCC4)cc3c2N(CC3)C1=O)c1ncn(Cc2c(F)cccc2F)n1 (stereo not drawn) [III-27, 1-(2,6-difluorobenzyl)-N-(9-((6,7-dihydro-4H-pyrazolo[5,1-c] [1,4]oxazin-3-yl)ethynyl)-4-oxo-1,2,3,4,6,7-hexahydroazepino[3,2,1-hi]indol-3-yl)-1H-1,2,4-triazole-3-carboxamide]	< 5	< 5	–
C=Cn1ncc(C#Cc2cc3c4c(c2)CCN4C(=O)C(NC(=O)c2ncn(Cc4c(F)cccc4F)n2)CC3)c1C=O (stereo not drawn) [III-28, 1-(2,6-difluorobenzyl)-N-(9-((5-formyl-1-vinyl-1H-pyrazol-4-yl)ethynyl)-4-oxo-1,2,3,4,6,7-hexahydroazepino[3,2,1-hi]indol-3-yl)-1H-1,2,4-triazole-3-carboxamide]	< 5	< 5	–
O=C(NC1CCc2cc(C#Cc3cnn(C4COC4)c3)cc3c2N(CC3)C1=O)c1ncn(Cc2c(F)cccc2F)n1 (stereo not drawn) [III-29, 1-(2,6-difluorobenzyl)-N-(9-((1-(oxetan-3-yl)-1H-pyrazol-4-yl)ethynyl)-4-oxo-1,2,3,4,6,7-hexahydroazepino[3,2,1-hi]indol-3-yl)-1H-1,2,4-triazole-3-carboxamide]	< 5	< 5	–
O=C(NC1CCc2cc(C#Cc3cnn(C4CCC4)c3)cc3c2N(CC3)C1=O)c1ncn(Cc2c(F)cccc2F)n1 (stereo not drawn) [III-30, N-(9-((1-cyclobutyl-1H-pyrazol-4-yl)ethynyl)-4-oxo-1,2,3,4,6,7-hexahydroazepino[3,2,1-hi]indol-3-yl)-1-(2,6-difluorobenzyl)-1H-1,2,4-triazole-3-carboxamide]	< 5	< 5	–
Cn1cc(C#Cc2cc3c4c(c2)CCN4C(=O)C(NC(=O)c2ncn(Cc4ccccn4)n2)CC3)cn1 (stereo not drawn) [III-31, N-(9-((1-methyl-1H-pyrazol-4-yl)ethynyl)-4-oxo-1,2,3,4,6,7-hexahydroazepino[3,2,1-hi]indol-3-yl)-1-(pyridin-2-ylmethyl)-1H-1,2,4-triazole-3-carboxamide]	5 to 10	< 5	–
Cn1cc(C#Cc2cc3c4c(c2)CCN4C(=O)C(NC(=O)c2ncn(Cc4ccccc4)n2)CC3)cn1 (stereo not drawn) [III-32, 1-benzyl-N-(9-((1-methyl-1H-pyrazol-4-yl)ethynyl)-4-oxo-1,2,3,4,6,7-hexahydroazepino[3,2,1-hi]indol-3-yl)-1H-1,2,4-triazole-3-carboxamide]	< 5	< 5	–
Cn1cc(C#Cc2cc3c4c(c2)CCN4C(=O)C(NC(=O)c2ccn(Cc4c(F)cccc4F)n2)CC3)cn1 (stereo not drawn) [XIII-1, 1-(2,6-difluorobenzyl)-N-(9-((1-methyl-1H-pyrazol-4-yl)ethynyl)-4-oxo-1,2,3,4,6,7-hexahydroazepino[3,2,1-hi]indol-3-yl)-1H-pyrazole-3-carboxamide]	10 to 100	10 to 100	–
